Assay results reported in patent EP4603105A1, “PHARMACEUTICAL COMPOSITION CONTAINING CYCLIC COMPOUND HAVING SELECTIVE KRAS INHIBITORY EFFECT AGAINST HRAS AND NRAS” (CHUGAI SEIYAKU KABUSHIKI KAISHA, priority 2022, dated 2024).
Where a SMILES comes first, the peptide text is derived from it. Bridges are numbered along the chain shown (N, C = ends). [ ]: non-standard residue; d: D form. The star is where a group is joined. hPhe(3-Cl-4-CF3) = N[C@@H](CCc1ccc(C(F)(F)F)c(Cl)c1)C(=O)O; NPrPhe(4-CF3) = CCCN[C@@H](Cc1ccc(C(F)(F)F)cc1)C(=O)O; NMeGly(cPent) = CN[C@H](C(=O)O)C1CCCC1; Pro(4,4-F2) = O=C(O)[C@@H]1CC(F)(F)CN1; Hyp = O=C(O)[C@@H]1C[C@@H](O)CN1; NMeL = CN[C@@H](CC(C)C)C(=O)O; Morpholide = C1CN(*)CCO1; NMeA = CN[C@@H](C)C(=O)O; Ac5c = NC1(C(=O)O)CCCC1; Aze = O=C(O)[C@@H]1CCN1; Ac4c = NC1(C(=O)O)CCC1; NEtG = CCNCC(=O)O; Sar = CNCC(=O)O

Key:
[1] = molecular target: GDP-bound NRAS wild-type protein (Homo sapiens, UniProt P01111); test: Binding to NRAS by surface plasmon resonance (SPR), KD and KD ratio to KRAS
Chain of GDP-bound NRAS wild-type protein (P01111 whole entry): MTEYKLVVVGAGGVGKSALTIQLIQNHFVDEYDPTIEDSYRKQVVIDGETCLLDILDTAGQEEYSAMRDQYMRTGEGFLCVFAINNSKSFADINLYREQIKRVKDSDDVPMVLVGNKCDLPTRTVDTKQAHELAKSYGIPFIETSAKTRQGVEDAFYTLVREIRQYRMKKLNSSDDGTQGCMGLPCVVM
Procedure, shortened: (§1)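 Each cycle, GDP-bound biotin-Avi RAS was captured (~100–300 RU), compound concentrations were injected low to high for 75 s each at 100 µL/min, then the chip was regenerated. Buffer: HBS pH 7.4, 10 mM MgCl2, 10 µM GDP, 1 mM DTT, 4% DMSO; 30°C. KD from a 1:1 binding model.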

[2] = molecular target: HRAS wild-type protein (Homo sapiens, UniProt P01112); test: Binding to HRAS by surface plasmon resonance (SPR), KD and KD ratio to KRAS
Chain of HRAS wild-type protein (P01112 whole entry): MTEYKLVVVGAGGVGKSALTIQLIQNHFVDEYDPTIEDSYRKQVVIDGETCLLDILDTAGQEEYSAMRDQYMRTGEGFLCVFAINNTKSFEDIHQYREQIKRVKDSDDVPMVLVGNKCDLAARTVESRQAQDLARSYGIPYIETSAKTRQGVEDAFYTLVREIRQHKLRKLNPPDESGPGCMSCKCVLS
Procedure, shortened: as §1

[3] = system: human lung cancer strain NCI-H441; type: cell-based
Procedure, shortened: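 Signal came from […] measured per well once the reagent was added. Beforehand, cells were cultured at 37°C and 5% carbon dioxide on a compound series serially diluted in dimethyl sulfoxide.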

[4] = ratio of KD for GDP-bound NRAS wild-type protein to KD for KRAS
[5] = ratio of KD for HRAS wild-type protein to KD for KRAS

IC50 [3] [nM] | SMILES | NRAS /KRAS [1, 4] | HRAS /KRAS [2, 5] | NRAS /KRAS ([1]; ratio of the KD value with respect to GDP-bound NRAS wild-type protein to the KD value with respect to KRAS) | HRAS /KRAS ([2]; ratio of the KD value with respect to HRAS wild-type protein to the KD value with respect to KRAS)
2.6 | CCCN1C(=O)[C@@H]2CCN2C(=O)[C@H](C)N(C)C(=O)[C@H]([C@@H](C)CC)NC(=O)[C@H](CC(C)C)N(C)C(=O)C[C@@H](C(=O)N(C)C)NC(=O)[C@H](C2CCCC2)N(C)C(=O)C2(CCCC2)NC(=O)[C@@H]2C[C@@H](OCC)CN2C(=O)[C@H](CCc2ccc(C(F)(F)F)c(Cl)c2)NC(=O)CN(C)C(=O)[C@@H]1Cc1ccc(C(F)(F)F)cc1 [PP0383] ([NMeL]I[NMeA][Aze][NPrPhe(4-CF3)][Sar][hPhe(3-Cl-4-CF3)][Hyp](Et)[Ac5c][NMeGly(cPent)]D-NMe2; lactam N-11) | C (A compound having a KD ratio of 0.1 or more and less than 3 is denoted as C) | B (a compound having 3 or more and less than 10 is denoted as B) | – | –
118 | CCC[C@H]1C(=O)N[C@@H]([C@@H](C)CC)C(=O)N(C)CC(=O)N(C)[C@H]2C/C=C\CCN(C2=O)[C@@H](Cc2ccc(C(F)(F)F)cc2)C(=O)N(C)CC(=O)N[C@@H](CCc2ccc(Cl)c(Cl)c2)C(=O)N2CCOC[C@H]2C(=O)NC2(CC(C)(C)C2)C(=O)N(C)[C@@H](C(CC)CC)C(=O)N(C)[C@H](C(=O)N(C)C)CC(=O)N1C [PP2920] | AA (a compound having 20 or more is denoted as AA) | A (a compound having 10 or more and less than 20 is denoted as A) | – | –
2.8 | CC[C@H](C)[C@@H]1NC(=O)[C@H](CC(C)C)N(C)C(=O)C[C@@H](C(=O)N(C)C)N(C)C(=O)[C@H](C2CCCC2)N(C)C(=O)C2(CCCC2)NC(=O)[C@@H]2CCCN2C(=O)[C@H](CCc2cc(F)c(C(F)(F)F)c(F)c2)NC(=O)CN(C)C(=O)[C@H](Cc2ccc(C(F)(F)F)cc2)N2CCCC[C@@H](C2=O)N(C)C(=O)CN(C)C1=O [PP0569] | – | – | C (A compound having a KD ratio of 0.1 or more and less than 3 is denoted as C) | B (a compound having 3 or more and less than 10 is denoted as B)

Continued, compound first:

SMILES | IC50 [3] [nM] | NRAS /KRAS [1, 4] | HRAS /KRAS [2, 5] | NRAS /KRAS ([1]; ratio of the KD value with respect to GDP-bound NRAS wild-type protein to the KD value with respect to KRAS) | HRAS /KRAS ([2]; ratio of the KD value with respect to HRAS wild-type protein to the KD value with respect to KRAS)
CCCN1C(=O)CN(C)C(=O)CN(CC)C(=O)[C@H]([C@@H](C)CC)NC(=O)[C@H](CC(C)C)N(C)C(=O)C[C@@H](C(=O)N2CCOCC2)NC(=O)[C@H](C2CCCC2)N(C)C(=O)C2(CCC2)NC(=O)[C@@H]2CC(F)(F)CN2C(=O)[C@H](CCc2ccc(C(F)(F)F)c(Cl)c2)NC(=O)CN(C)C(=O)[C@@H]1Cc1ccc(C(F)(F)F)cc1 [PP0334] ([NMeL]I[NEtG][Sar][NPrPhe(4-CF3)][Sar][hPhe(3-Cl-4-CF3)][Pro(4,4-F2)][Ac4c][NMeGly(cPent)]D-Morpholide; lactam N-11) | 130 | B (a compound having 3 or more and less than 10 is denoted as B) | C (A compound having a KD ratio of 0.1 or more and less than 3 is denoted as C) | – | –
CCCN1C(=O)CN(C)C(=O)[C@@H]2CCN2C(=O)[C@H]([C@@H](C)CC)NC(=O)[C@H](CC(C)C)N(C)C(=O)C[C@@H](C(=O)N(C)C)NC(=O)[C@H](C2CCCC2)N(C)C(=O)C2(CCCC2)NC(=O)[C@@H]2CCCN2C(=O)[C@H](CCc2ccc(C(F)(F)F)c(Cl)c2)NC(=O)CN(C)C(=O)[C@@H]1Cc1ccc(C(F)(F)F)cc1 [PP0373] ([NMeL]I[Aze][Sar][NPrPhe(4-CF3)][Sar][hPhe(3-Cl-4-CF3)]P[Ac5c][NMeGly(cPent)]D-NMe2; lactam N-11) | 152 | B (a compound having 3 or more and less than 10 is denoted as B) | B (a compound having 3 or more and less than 10 is denoted as B) | – | –
CCC[C@H]1C(=O)N[C@@H]([C@@H](C)CC)C(=O)N2CCC[C@H]2C(=O)N(C)[C@H]2C/C=C\CCN(C2=O)[C@@H](Cc2ccc(C(F)(F)F)cc2)C(=O)N(C)CC(=O)N[C@@H](CCc2cc(F)c(C(F)(F)F)c(F)c2)C(=O)N2C[C@H](OCC)C[C@H]2C(=O)N(C)C2(CCC2)C(=O)N(C)[C@@H](C2CCCC2)C(=O)N(C)[C@H](C(=O)N2CCCCC2)CC(=O)N1C [PP3114] | 14.7 | AA (a compound having 20 or more is denoted as AA) | A (a compound having 10 or more and less than 20 is denoted as A) | – | –
